Biological target: T1, LXRβ (Homo sapiens, UniProt P55055)
T1 construct: Co-transfection expression plasmids, comprising full-length LXRα (pCMX-h LXRα[…] or LXRβ (pCMX-hLXRβ)); expressed in transfected cells; host or cells: CV-1 African Green Monkey Kidney Cells
T1 sequence (P55055 1-460): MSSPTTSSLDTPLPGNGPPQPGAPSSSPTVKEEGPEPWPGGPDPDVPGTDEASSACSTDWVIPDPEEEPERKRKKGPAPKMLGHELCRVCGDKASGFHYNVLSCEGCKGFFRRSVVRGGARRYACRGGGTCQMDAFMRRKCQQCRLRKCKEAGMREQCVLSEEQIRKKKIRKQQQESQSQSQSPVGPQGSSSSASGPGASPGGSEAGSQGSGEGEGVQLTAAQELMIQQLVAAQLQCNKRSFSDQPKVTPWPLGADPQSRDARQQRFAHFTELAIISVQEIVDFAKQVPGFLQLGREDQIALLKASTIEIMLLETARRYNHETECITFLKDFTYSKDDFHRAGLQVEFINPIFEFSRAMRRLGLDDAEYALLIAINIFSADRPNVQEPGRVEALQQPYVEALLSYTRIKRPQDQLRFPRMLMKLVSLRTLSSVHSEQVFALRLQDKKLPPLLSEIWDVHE
T1 sequence (P19793 1-462 partner): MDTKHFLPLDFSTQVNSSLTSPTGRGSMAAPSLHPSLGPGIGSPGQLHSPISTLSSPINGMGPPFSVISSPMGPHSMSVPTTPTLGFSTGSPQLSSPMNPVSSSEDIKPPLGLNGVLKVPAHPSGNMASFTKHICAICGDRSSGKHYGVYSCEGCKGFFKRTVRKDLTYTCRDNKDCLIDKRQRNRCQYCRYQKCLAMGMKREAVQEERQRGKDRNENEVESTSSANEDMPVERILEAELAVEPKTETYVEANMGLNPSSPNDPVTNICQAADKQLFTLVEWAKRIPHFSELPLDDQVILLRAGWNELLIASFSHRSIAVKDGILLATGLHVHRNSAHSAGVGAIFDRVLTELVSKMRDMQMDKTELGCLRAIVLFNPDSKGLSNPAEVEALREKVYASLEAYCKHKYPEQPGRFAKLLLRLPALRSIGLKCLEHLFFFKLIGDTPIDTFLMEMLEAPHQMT
Experiment: Co-transfection assay (LXRE luciferase reporter), LXRβ
Assay type: cell-based
Details: for EC50: CV-1 cells transfected with pCMX-hLXRβ and LXREx1-Tk-Luciferase, 20 hours incubation; for Emax: LXRβ co-transfection, relative to high control 1-(2,4-difluorobenzyl)-2-oxo-6-(4-phenoxyphenyl)-4-(trifluoromethyl)-1,2-dihydropyridine-3-carbonitrile, read-out: % Efficacy
Outline: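 CV-1 / pCMX-hLXRβ + LXREx1-Tk-Luc + β-gal; cpd 20 h, 37 °C, ≤0.5% DMSO; Steady-Glo luminescence. 11-pt ½-log curves, duplicate wells, sigmoidal fit → EC50; % efficacy vs high-control agonist, DMSO low control; mean of ≥2 expts.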

Structure (SMILES) | EC50 | Emax
Cc1nc(C(F)(F)F)cn1-c1ccc(-c2cc(Cl)c(CO)c(S(C)(=O)=O)c2)cc1-n1nncc1Cc1ccc(Cl)cc1 [Example 122, (3-chloro-3′-{5-[(4-chlorophenyl)methyl]-1H-1,2,3-triazol-1-yl}-5-(methylsulfonyl)-4′-[2-methyl-4-(trifluoromethyl)-1H-imidazol-1-yl]biphenyl-4-yl)methanol] | 643 nM | 64%
Cc1nc(C(F)(F)F)cn1-c1ccc(-c2cccc(S(C)(=O)=O)c2)cc1-c1nc(CN(C)C)oc1-c1ccc(OC(F)(F)F)cc1 [Example 538, N,N-dimethyl-1-(4-(4-(2-methyl-4-(trifluoromethyl)-1H-imidazol-1-yl)-3′-(methylsulfonyl)-[1,1′-biphenyl]-3-yl)-5-(4-(trifluoromethoxy)phenyl)oxazol-2-yl)methanamine] | 205 nM | 79%
Cc1nc(C(F)(F)F)cn1-c1ccc(-c2cc(F)c(CO)c(S(C)(=O)=O)c2)cc1-n1nncc1C(C)(C)c1ccc(Cl)cc1 [Example 223, (3′-(5-(2-(4-chlorophenyl)propan-2-yl)-1H-1,2,3-triazol-1-yl)-3-fluoro-4′-(2-methyl-4-(trifluoromethyl)-1H-imidazol-1-yl)-5-(methylsulfonyl)-[1,1′-biphenyl]-4-yl)methanol] | 1770 nM | 63%
Cc1nc(C(F)(F)F)cn1-c1ccc(-c2cc(F)c(CO)c(S(C)(=O)=O)c2)cc1-c1ccnn1-c1ccc(OC(F)(F)F)cc1 [Example 292, [3-fluoro-5-(methylsulfonyl)-4′-[2-methyl-4-(trifluoromethyl)-1H-imidazol-1-yl]-3′-(1-{4-[(trifluoromethyl)oxy]phenyl}-1H-pyrazol-5-yl)biphenyl-4-yl]methanol] | 65 nM | 70%
Cc1nc(-c2cc(-c3cc(F)c(CO)c(S(C)(=O)=O)c3)ccc2-n2cc(C(F)(F)F)nc2C)c(-c2ccc(OC(F)F)c(OC(F)F)c2)o1 [Example 393, (3′-(5-(3,4-bis(difluoromethoxy)phenyl)-2-methyloxazol-4-yl)-3-fluoro-4′-(2-methyl-4-(trifluoromethyl)-1H-imidazol-1-yl)-5-(methylsulfonyl)biphenyl-4-yl)methanol] | 64 nM | 56%
CS(=O)(=O)c1cc(-c2cc(Cl)c(-n3cnc(C(F)(F)F)c3)c(-n3nncc3-c3ccc(OC(F)(F)F)cc3)c2)cc(F)c1CO [Example 193, [3′-chloro-3-fluoro-5-(methylsulfonyl)-4′-[4-(trifluoromethyl)-1H-imidazol-1-yl]-5′-(5-{4-[(trifluoromethyl)oxy]phenyl}-1H-1,2,3-triazol-1-yl)biphenyl-4-yl]methanol] | 598 nM | 62%
CS(=O)(=O)c1cc(-c2cc(F)c(-n3cnc(C(F)(F)F)c3)c(-n3nncc3-c3ccc(OC(F)(F)F)cc3)c2)cc(F)c1CO [Example 189, [3,3′-difluoro-5-(methylsulfonyl)-4′-[4-(trifluoromethyl)-1H-imidazol-1-yl]-5′-(5-{4-[(trifluoromethyl)oxy]phenyl}-1H-1,2,3-triazol-1-yl)biphenyl-4-yl]methanol] | 1790 nM | 95%
Cc1nc(C(F)(F)F)cn1-c1ccc(-c2cccc(S(=O)(=O)C(C)C)c2)cc1-n1nncc1-c1ccc(OC(F)(F)F)cc1 [Example 98, 1-{3′-[(1-methylethyl)sulfonyl]-4-[2-methyl-4-(trifluoromethyl)-1H-imidazol-1-yl]biphenyl-3-yl}-5-{4-[(trifluoromethyl)oxy]phenyl}-1H-1,2,3-triazole] | 1030 nM | 91%
COc1ccc(-c2cnnn2-c2cc(-c3cccc(S(C)(=O)=O)c3)ccc2-n2cc(C(F)(F)F)nc2C)cc1C(F)(F)F [Example 74, 5-[4-(methyloxy)-3-(trifluoromethyl)phenyl]-1-{3′-(methylsulfonyl)-4-[2-methyl-4-(trifluoromethyl)-1H-imidazol-1-yl]biphenyl-3-yl}-1H-1,2,3-triazole] | 488 nM | 72%
COc1cc(OC(F)(F)F)ccc1-c1nc(C)oc1-c1cc(-c2cccc(S(C)(=O)=O)c2)ccc1-n1cc(C(F)(F)F)nc1C [Example 637, 4-(2-methoxy-4-(trifluoromethoxy)phenyl)-2-methyl-5-(4-(2-methyl-4-(trifluoromethyl)-1H-imidazol-1-yl)-3′-(methylsulfonyl)-[1,1′-biphenyl]-3-yl)oxazole] | 579 nM | 40%
Cc1nc(C(F)(F)C(C)C)cn1-c1ccc(-c2cccc(S(C)(=O)=O)c2)cc1-n1nncc1-c1ccc(OC(F)(F)F)cc1 [Example 164, 1-{4-[4-(1,1-difluoro-2-methylpropyl)-2-methyl-1H-imidazol-1-yl]-3′-(methylsulfonyl)biphenyl-3-yl}-5-{4-[(trifluoromethyl)oxy]phenyl}-1H-1,2,3-triazole] | 203 nM | 59%
Cc1nc(-c2cc(-c3cc(F)c(CO)c(S(C)(=O)=O)c3)ccc2-n2cc(C(F)(F)F)nc2C)c(-c2cncc(Cl)c2)o1 [Example 421, (3′-(5-(5-chloropyridin-3-yl)-2-methyloxazol-4-yl)-3-fluoro-4′-(2-methyl-4-(trifluoromethyl)-1H-imidazol-1-yl)-5-(methylsulfonyl)biphenyl-4-yl)methanol] | 218 nM | 76%
Cc1nc(-c2cc(-c3cc(F)c(CO)c(S(C)(=O)=O)c3)ccc2-n2cc(C(F)(F)F)nc2C)c(-c2cc(Cl)cc(Cl)c2)o1 [Example 456, (3′-(5-(3,5-dichlorophenyl)-2-methyloxazol-4-yl)-3-fluoro-4′-(2-methyl-4-(trifluoromethyl)-1H-imidazol-1-yl)-5-(methylsulfonyl)biphenyl-4-yl)methanol] | 57 nM | 45%
Cc1cc(-c2cnnn2-c2cc(-c3cccc(S(C)(=O)=O)c3)ccc2-n2cc(C(F)(F)F)nc2C)ccc1F [Example 28, 5-(4-fluoro-3-methylphenyl)-1-{3′-(methylsulfonyl)-4-[2-methyl-4-(trifluoromethyl)-1H-imidazol-1-yl]biphenyl-3-yl}-1H-1,2,3-triazole] | 589 nM | 117%
CCC(F)(F)c1cn(-c2ccc(-c3cccc(S(C)(=O)=O)c3)cc2-c2nc(C)oc2-c2ccc(OC(F)(F)F)cc2)c(C)n1 [Example 517, 4-(4-(4-(1,1-difluoropropyl)-2-methyl-1H-imidazol-1-yl)-3′-(methylsulfonyl)-[1,1′-biphenyl]-3-yl)-2-methyl-5-(4-(trifluoromethoxy)phenyl)oxazole] | 146 nM | 47%
CCS(=O)(=O)c1cccc(-c2ccc(-n3cc(C(F)(F)F)nc3C)c(-n3nncc3C(F)(F)c3ccc(Cl)cc3)c2)c1 [Example 142, 5-[(4-chlorophenyl)(difluoro)methyl]-1-{3′-(ethylsulfonyl)-4-[2-methyl-4-(trifluoromethyl)-1H-imidazol-1-yl]biphenyl-3-yl}-1H-1,2,3-triazole] | 205 nM | 63%
Cc1nc(C(F)(F)F)cn1-c1ccc(-c2cccc(S(=O)(=O)N(C)C)c2)cc1-c1ocnc1-c1ccc(OC(F)(F)F)cc1 [Example 358, N,N-dimethyl-4′-[2-methyl-4-(trifluoromethyl)-1H-imidazol-1-yl]-3′-(4-{4-[(trifluoromethyl)oxy]phenyl}-1,3-oxazol-5-yl)biphenyl-3-sulfonamide] | 116 nM | 87%
Cc1nc(C(F)(F)F)cn1-c1ccc(-c2cc(F)c(CO)c(S(C)(=O)=O)c2)cc1-n1nncc1-c1ccc(Cl)c(Cl)c1 [Example 81, {3′-[5-(3,4-dichlorophenyl)-1H-1,2,3-triazol-1-yl]-3-fluoro-5-(methylsulfonyl)-4′-[2-methyl-4-(trifluoromethyl)-1H-imidazol-1-yl]biphenyl-4-yl}methanol] | 85 nM | 99%
Cc1ccc(Cc2cnnn2-c2cc(-c3cccc(S(C)(=O)=O)c3)ccc2-n2cc(C(F)(F)F)nc2C)cc1 [Example 126, 5-[(4-methylphenyl)methyl]-1-{3′-(methylsulfonyl)-4-[2-methyl-4-(trifluoromethyl)-1H-imidazol-1-yl]biphenyl-3-yl}-1H-1,2,3-triazole] | 270 nM | 93%

Reference: patent publication US9834542B2, “LXR modulators” (BRISTOL-MYERS SQUIBB COMPANY, priority 2013, dated 2017)
